{
  "source": "BindingDB's records for doi:10.1016/S0960-894X(97)00161-3",
  "about": "(1997)",
  "key": {"[1]": {"assay": "Compound was tested for inhibition against Creatine kinase (CK)"}, "[2]": {"assay": "Compound was tested for inhibition against Creatine kinase(CK)"}},
  "note": "pKi: −log10 of the molar value.",
  "data": [
    {"smiles": "CN(CC(=O)O)C(=N)CP(=O)(O)O", "note": "[Phosphocreatine analogue]", "values": [
      {"measurement": "pKi", "setting": "[1]", "result": 2.85}
    ]},
    {"smiles": "N=C(CP(=O)(O)O)NCC(=O)O", "note": "[Phosphocreatine analogue]", "values": [
      {"measurement": "pKi", "setting": "[2]", "result": 2.24}
    ]},
    {"smiles": "N=C(CP(=O)(O)O)NCCC(=O)O", "note": "[Phosphocreatine analogue]", "values": [
      {"measurement": "pKi", "setting": "[1]", "result": 1.43}
    ]}
  ]
}
